From the NIST ThermoML archive (doi:10.1016/j.jct.2018.04.011)

What was measured:
[1] = Crystal; for Normal melting temperature: DTA
[2] = Molar enthalpy of transition or fusion; details: Crystal; DSC
[3] = molar heat capacity at constant pressure; details: 101.33 kPa, DSC

COC(=O)c1cccc(O)c1 [methyl 3-hydroxybenzoate]
Details	mass density [kg/m3]
[1], 298.15 K, 101.33 kPa, Pycnometric method	1230

Details	Molar enthalpy of transition or fusion [kcal/mol]	Normal melting temperature [°C]
[1]	–	71.10
[2]	4.81	–

[3], Crystal
Details	molar heat capacity at constant pressure [J/K/mol]
293.15 K	200.2
294.15 K	201.3
295.15 K	202.6
296.15 K	203.3
297.15 K	204.1
298.15 K	205
299.15 K	205.6
300.15 K	206.2
301.15 K	206.7
302.15 K	207.5
303.15 K	208.2
304.15 K	208.7
305.15 K	209.2
306.15 K	209.8
307.15 K	210.4
308.15 K	211
309.15 K	211.5
310.15 K	212
311.15 K	212.6
312.15 K	213.1

COC(=O)c1ccccc1O [methyl 2-hydroxybenzoate]
Details	Molar enthalpy of transition or fusion [kcal/mol]	Normal melting temperature [°C]
[1]	–	-1.66
[2]	3.89	–

[3], Liquid
Details	molar heat capacity at constant pressure [J/K/mol]
293.15 K	240.4
294.15 K	241.6
295.15 K	242.5
296.15 K	243.3
297.15 K	243.9
298.15 K	244.3
299.15 K	244.8
300.15 K	245.2
301.15 K	245.6
302.15 K	246.1
303.15 K	246.6
304.15 K	246.9
305.15 K	247.1
306.15 K	247.4
307.15 K	247.8
308.15 K	248
309.15 K	248.3
310.15 K	248.6
311.15 K	249.1
312.15 K	249.4

COC(=O)c1ccc(O)cc1 [methyl 4-hydroxybenzoate]
Details	Molar enthalpy of transition or fusion [kcal/mol]	Normal melting temperature [°C]
[1]	–	126
[2]	6.18	–

[3], Crystal
Details	molar heat capacity at constant pressure [J/K/mol]
293.15 K	209.8
294.15 K	211
295.15 K	212.2
296.15 K	212.8
297.15 K	213.6
298.15 K	214.4
299.15 K	215.2
300.15 K	215.7
301.15 K	216.2
302.15 K	217
303.15 K	217.8
304.15 K	218.4
305.15 K	218.9
306.15 K	219.3
307.15 K	220.1
308.15 K	220.6
309.15 K	221.2
310.15 K	221.7
311.15 K	222.4
312.15 K	222.8
